In patent publication US4333938A, “Imino derivatives of 5-aminobenzodioxole-1,3 which are useful as medicaments” (Laboratoires Sarget, priority 1979, dated 1982):
Where “and” joins values, the source holds several entries; their conditions need not be identical. Equal entries are not always repeated.

Legend:
[1] = oral toxicity (mortality) in the mouse; conditions: in vivo, Swiss mice
Procedure: (§1) The percentages of mortality produced by the compounds of this invention when administered orally to Swiss mice are shown in Table 1. The animals, free from specific pathogenic organisms were housed in an air conditioned room for 24 to 48 hours before the start of the experiment. They were separated into groups of 5 males and 5 females. The materials were administered to animals which had been fasted for 24 hours by means of a gastric tube in suspension in a 6% thickened julep using a volume equivalent to 0.1 ml per 10 g of body weight. […] They remained under observation for two weeks before being sacrificed and autopsied.

Wistar rat = test: oral toxicity (mortality) in the Wistar rat; type: in vivo
Procedure: as §1
The toxicities of the compounds of Examples 2 and 3 were determined in the Wistar rat. The protocol which was followed was the same as that described for the mice, except that the compounds were administered in a volume equivalent to 0.5 ml per 100 g of body weight of rat. […] The product of Example 3 produced no mortality at 2000 mg/kg and 20% mortality at 3000 mg/kg.

phenylbenzoquinone (PBQ) = test: analgesic activity, phenylbenzoquinone (PBQ) challenge; type: in vivo; conditions: male Swiss mouse, oral
Procedure: The analgesic activity was determined in the male Swiss mouse using phenylbenzoquinone (PBQ) as the challenging agent (variation of the method of Siegmund et al, Proc. Soc. Exp. Biol. Med. […], 95, 729-31). […] The ED50 was determined by the method of Lichfield and Wilcoxon.

[2] = tested on: edema produced by serotonin; test: inhibition of serotonin-induced edema; type: in vivo, Wistar rat; conditions: oral, 30 minutes before serotonin
Procedure: In the Wistar rat inflammation is induced by intrapedal injection of 0.1 ml of a 0.02% solution of serotonin in physiological serum. The test substance is administered orally 30 minutes before the serotonin and the edema is measured by plethysmometry one hour after its release.

[3] = tested on: carrageenan-induced granulomas; test: activity on carrageenan-induced granulomas; type: in vivo, Male Wistar rats; conditions: for ED50: Rattus norvegicus, 24 h, dose which protects 50% of the animals to the extent of 30% with respect to wet weight of the granuloma, read-out: AD50 (the source's name)
Procedure: Male Wistar rats weighing 130 to 150 grams were given a subcutaneous injection in the central part of the skin of the back of 0.5 ml of an aqueous suspension of carrageenan. Two doses of the test substance are administered, one 30 minutes before and the other 6 hours after carrageenan. At the end of 24 hours the rats were sacrificed and the granulomas were removed and weighed before and after drying for 24 hours at 50° C. The difference in weight of the granulomas wet and dry represents the exudate
These AD50 are respectively 175(142-215) and 175(150-205) mg/kg.

cotton pellet granulomas = test: inhibition of cotton pellet granulomas; type: in vivo, male Sprague-Dawley rats; conditions: oral, daily for 10 days
Procedure: Two cotton pellets weighing 70 mg were implanted under the back skin of male Sprague-Dawley rats anesthetized with ether. Starting the next day, the compound was administered orally daily for 10 days. The rats were sacrificed and the pellets were removed and weighed before and after drying at 50° C. for 24 hours. The weights used were those obtained after deduction of the weight of the implants. The average of the quantities so calculated was determined for each group and compared to the averages of the control group.

stomachs = test: ulcerogenic activity; type: in vivo, female Wistar rat; conditions: 150 mg/kg daily
Procedure: The ulcerogenic activity was determined in the female Wistar rat using a variation of the procedure described by J. M. Lwoff, J. Pharmacol. 1971, 3, 1, 81-3. The test substance was administered daily for 3 days to the animals maintained on a aqueous diet. The stomachs were removed after 1, 2, and 3 days of treatment and the ulcerations were classified from 0 to 4. The ulceration index is calculated for each group of animals as the product (average of the classes x the percentage of animals afflicted), while distinguishing acute ulcerations from ulcers which were in the process of healing.

blood sugar level = test: antidiabetic activity, blood sugar level in streptozotocin hyperglycemic rats; type: in vivo, Female rats; set-up: key: NS: the difference between the blood sugar level in the treated animals and the control animals is not significant; the difference is significant by Student's test at p≤0.05; conditions: oral
Procedure: Female rats weighing 180-200 grams were given an intraperitoneal dose on day J0 of 100 mg/kg of streptozotocin in a 0.05 M citrate buffer at a pH of 4.5 calculated as 0.5 ml per 100 g of body weight. On day J2 hyperglycemic animals were selected by determining the blood sugar level by the orthotoludine method in a stream continuously removed from the retroorbital sinus. […] On day J3, without previous fasting, the selected animals received the treatment. This consisted of oral administration of the test compound in a 6% aqueous suspension of gum arabic at a volume of 0.5 ml per 100 g of body weight.
The animals were sacrificed one, two, or four hours after the treatment and their blood sugar levels were determined. Each group of animals was compared to a control group of animals which received only the suspension of gum arabic. Metformin was the substance chosen as the control.
The results are given in Table 8 which indicates the percentage of decrease in the blood sugar level produced by the treatment.

[4] = 50 mg/kg, treatment 1 h before sacrificing
[5] = 50 mg/kg, treatment 2 h before sacrificing
[6] = 50 mg/kg, treatment 4 h before sacrificing
[7] = 100 mg/kg, treatment 1 h before sacrificing
[8] = 100 mg/kg, treatment 2 h before sacrificing
[9] = 100 mg/kg, treatment 4 h before sacrificing
[10] = 200 mg/kg, treatment 1 h before sacrificing
[11] = 200 mg/kg, treatment 2 h before sacrificing
[12] = 200 mg/kg, treatment 4 h before sacrificing

Structure (SMILES): Cc1ccc(C=Nc2ccc3c(c2)OCO3)s1 [Example 2, N-(5-methyl-2-thienylidene)-5-aminobenzodioxole-1,3]
- mortality at 336 h ([1]; 750 mg/kg): 10%
- mortality at 336 h ([1]; 1000 mg/kg): 20%
- mortality at 336 h ([1]; 1250 mg/kg): 0%
- mortality at 336 h ([1]; 1500 mg/kg): 60%
- mortality (in words) (Wistar rat; 3000 mg/kg): no mortality
- % analgesic activity (phenylbenzoquinone (PBQ); 100 mg/kg): 19%
- % analgesic activity (phenylbenzoquinone (PBQ); 200 mg/kg): 49%
- % analgesic activity (phenylbenzoquinone (PBQ); 250 mg/kg): 51%
- % analgesic activity (phenylbenzoquinone (PBQ); 300 mg/kg): 40%
- % inhibitory activity on serotonin edema ([2]; 100 mg/kg): 39%
- % inhibitory activity on serotonin edema ([2]; 200 mg/kg): 29%
- % inhibitory activity on serotonin edema ([2]; 400 mg/kg): 37%
- Exudate, % activity ([3]; 100 mg/kg administered twice): 31%
- Exudate, % animals 30% protected ([3]; 100 mg/kg administered twice): 62%
- Exudate, % animals 30% protected ([3]; 150 mg/kg administered twice): 25% and 14%
- Weight of dry granuloma, % animals 30% protected ([3]; 150 mg/kg administered twice): 25% and 14%
- Weight of wet granuloma, % animals 30% protected ([3]; 150 mg/kg administered twice): 25% and 14%
- Exudate, % activity ([3]; 200 mg/kg administered twice): 39%
- Exudate, % animals 30% protected ([3]; 200 mg/kg administered twice): 75%
- Weight of dry granuloma, % activity ([3]; 200 mg/kg administered twice): 41% and 22%
- Weight of dry granuloma, % animals 30% protected ([3]; 200 mg/kg administered twice): 75% and 50%
- Weight of wet granuloma, % activity ([3]; 200 mg/kg administered twice): 39% and 24%
- Weight of wet granuloma, % animals 30% protected ([3]; 200 mg/kg administered twice): 75% and 50%
- Exudate, % activity ([3]; 300 mg/kg administered twice): 18%
- Exudate, % animals 30% protected ([3]; 300 mg/kg administered twice): 2%
- Weight of dry granuloma, % activity ([3]; 300 mg/kg administered twice): 9%
- Weight of dry granuloma, % animals 30% protected ([3]; 300 mg/kg administered twice): 25%
- Weight of wet granuloma, % activity ([3]; 300 mg/kg administered twice): 18%
- Weight of wet granuloma, % animals 30% protected ([3]; 300 mg/kg administered twice): 25%
- ED50 [3]: 175 mg/kg
- % inhibition with respect to dry pellets (cotton pellet granulomas; dose 150): 5%
- % inhibition with respect to wet pellets (cotton pellet granulomas; dose 150): 12%
- % inhibition with respect to dry pellets (cotton pellet granulomas; dose 300): 23%
- % inhibition with respect to wet pellets (cotton pellet granulomas; dose 300): 17%
- Ulceration Index, acute (stomachs; Day 1): 6
- Ulceration Index, healing (stomachs; Day 1): 0
- Ulceration Index, acute (stomachs; Day 2): 2
- Ulceration Index, healing (stomachs; Day 2): 6
- Ulceration Index, acute (stomachs; Day 3): 48
- Ulceration Index, healing (stomachs; Day 3): 28
- Percentage Decrease in the Blood Sugar (blood sugar level; [4]): 13%
- Percentage Decrease in the Blood Sugar (blood sugar level; [5]): 22%
- Percentage Decrease in the Blood Sugar (blood sugar level; [6]): 12%
- Percentage Decrease in the Blood Sugar (blood sugar level; [7]): 22%
- Percentage Decrease in the Blood Sugar (blood sugar level; [8]): 32%
- Percentage Decrease in the Blood Sugar (blood sugar level; [9]): 27%
- Percentage Decrease in the Blood Sugar (blood sugar level; [10]): 24%
- Percentage Decrease in the Blood Sugar (blood sugar level; [11]): 35%
- Percentage Decrease in the Blood Sugar (blood sugar level; [12]): 31%

Structure (SMILES): C(=Nc1ccc2c(c1)OCO2)c1cccnc1 [Example 3, N-(3-pyridylidene)-5-aminobenzodioxole-1,3]
- mortality at 336 h ([1]; 500 mg/kg): 0%
- mortality at 336 h ([1]; 1000 mg/kg): 10%
- mortality at 336 h ([1]; 2000 mg/kg): 100%
- mortality (in words) (Wistar rat; 2000 mg/kg): no mortality
- % analgesic activity (phenylbenzoquinone (PBQ); 50 mg/kg): 23%
- % analgesic activity (phenylbenzoquinone (PBQ); 100 mg/kg): 44%
- % analgesic activity (phenylbenzoquinone (PBQ); 200 mg/kg): 65%
- % analgesic activity (phenylbenzoquinone (PBQ); 300 mg/kg): 92%
- ED50 (phenylbenzoquinone (PBQ); method of Lichfield and Wilcoxon): 110 mg/kg
- % inhibitory activity on serotonin edema ([2]; 100 mg/kg): 27%
- % inhibitory activity on serotonin edema ([2]; 200 mg/kg): 21%
- % inhibitory activity on serotonin edema ([2]; 400 mg/kg): 26%
- Exudate, % activity ([3]; 100 mg/kg administered twice): 15% and 25%
- Exudate, % animals 30% protected ([3]; 100 mg/kg administered twice): 25% and 37%
- Weight of dry granuloma, % activity ([3]; 100 mg/kg administered twice): 12% and 22%
- Weight of wet granuloma, % activity ([3]; 100 mg/kg administered twice): 15% and 25%
- Weight of wet granuloma, % animals 30% protected ([3]; 100 mg/kg administered twice): 25% and 37%
- Exudate, % activity ([3]; 200 mg/kg administered twice): 27% and 34% and 38%
- Weight of dry granuloma, % activity ([3]; 200 mg/kg administered twice): 27% and 32% and 33%
- Weight of wet granuloma, % activity ([3]; 200 mg/kg administered twice): 27% and 33% and 34%
- Exudate, % activity ([3]; 250 mg/kg administered twice): 36%
- Exudate, % animals 30% protected ([3]; 250 mg/kg administered twice): 75%
- Weight of dry granuloma, % activity ([3]; 250 mg/kg administered twice): 33%
- Weight of dry granuloma, % animals 30% protected ([3]; 250 mg/kg administered twice): 62%
- Weight of wet granuloma, % activity ([3]; 250 mg/kg administered twice): 36%
- Weight of wet granuloma, % animals 30% protected ([3]; 250 mg/kg administered twice): 75%
- Exudate, % activity ([3]; 300 mg/kg administered twice): 35% and 43%
- Exudate, % animals 30% protected ([3]; 300 mg/kg administered twice): 87% and 75%
- Weight of dry granuloma, % activity ([3]; 300 mg/kg administered twice): 37% and 41%
- Weight of dry granuloma, % animals 30% protected ([3]; 300 mg/kg administered twice): 62% and 75%
- Weight of wet granuloma, % activity ([3]; 300 mg/kg administered twice): 35% and 43%
- Weight of wet granuloma, % animals 30% protected ([3]; 300 mg/kg administered twice): 87% and 75%
- ED50 [3]: 175 mg/kg
- % inhibition with respect to dry pellets (cotton pellet granulomas; dose 150): 5%
- % inhibition with respect to wet pellets (cotton pellet granulomas; dose 150): 0%
- Ulceration Index, acute (stomachs; Day 1): 6
- Ulceration Index, healing (stomachs; Day 1): 0
- Ulceration Index, acute (stomachs; Day 2): 20
- Ulceration Index, healing (stomachs; Day 2): 6
- Ulceration Index, acute (stomachs; Day 3): 33
- Ulceration Index, healing (stomachs; Day 3): 12
- Percentage Decrease in the Blood Sugar (blood sugar level; [4]): 16%
- Percentage Decrease in the Blood Sugar (blood sugar level; [5]): NS
- Percentage Decrease in the Blood Sugar (blood sugar level; [6]): 23%
- Percentage Decrease in the Blood Sugar (blood sugar level; [7]): NS
- Percentage Decrease in the Blood Sugar (blood sugar level; [8]): 27%
- Percentage Decrease in the Blood Sugar (blood sugar level; [9]): 29%
- Percentage Decrease in the Blood Sugar (blood sugar level; [10]): NS
- Percentage Decrease in the Blood Sugar (blood sugar level; [11]): 19%
- Percentage Decrease in the Blood Sugar (blood sugar level; [12]): 28%
